From patent US8088806B2 (Achillion Pharmaceuticals, Inc., priority 2005, dated 2012) come the findings set out here.

The structures appear in SMILES notation.

The assay has as its system HCV replicon. Description: Replicon based assay of HCV replication inhibition (NPT ELISA). The class given is cell-based, Hepatitis C virus. As to conditions: Hepatitis C virus, replicon based assay of HCV replication inhibition; Table II; read-out: Activity. A digest of the protocol:
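Huh-7 cells carrying a bicistronic HCV replicon (neo, EMCV-IRES-driven NS3–NS5B) treated overnight after seeding with usually 6 concentrations, 10 to 0.03 micromolar, for three days at 37° C without G418. Replication read as NPT level by captured ELISA; matched-DMSO wells and interferon alpha as controls.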
Turning to `CCCCCCCOc1ccc(Nc2nc(-c3cccs3)cs2)cc1` [compound 359, N-(4-(heptyloxy)phenyl)-4-(thiophen-2-yl)thiazol-2-amine], the EC50 is < 1 µM. As for `CCCCCCCCOc1ccc(Nc2nc(-c3cccs3)cs2)cc1` [compound 360, N-(4-(octyloxy)phenyl)-4-(thiophen-2-yl)thiazol-2-amine], the figure is < 1 µM. As for `CCCCCOc1ccc(Nc2nc(-c3cc4cnccc4o3)cs2)cc1C(F)(F)F` [compound 361, 4-(furo[3,2-c]pyridin-2-yl)-N-(4-(pentyloxy)-3-(trifluoromethyl)phenyl)thia-zol-2-amine], the EC50 was < 1 µM. As for `CCCCCCCOc1ccc(Nc2nc(-c3cc4cnccc4o3)cs2)cc1` [compound 362, 4-(furo[3,2-c]pyridin-2-yl)-N-(4-(heptyloxy)phenyl)thiazol-2-amine], the figure is 1 to 10 µM. As for `c1ccc(Oc2cccc(Nc3nc(-c4cc5cnccc5o4)cs3)c2)cc1` [compound 363, 4-(furo[3,2-c]pyridin-2-yl)-N-(3-phenoxyphenyl)thiazol-2-amine], the figure is > 10 µM; as for `CCCCCOc1ccc(Nc2nc(-c3ccncc3)cs2)cc1C(F)(F)F` [compound 364, N-(4-(pentyloxy)-3-(trifluoromethyl)phenyl)-4-(pyridin-4-yl)thiazol-2-amine], < 1 µM. As for `CCCCCCCOc1ccc(Nc2nc(-c3ccncc3)cs2)cc1` [compound 365, N-(4-(heptyloxy)phenyl)-4-(pyridin-4-yl)thiazol-2-amine], the figure is < 1 µM; as for `c1ccc(Oc2cccc(Nc3nc(-c4ccncc4)cs3)c2)cc1` [compound 366, N-(3-phenoxyphenyl)-4-(pyridin-4-yl)thiazol-2-amine], < 1 µM; as for `CCCCCOc1ccc(Nc2nc(C3(C(=O)OCC)CC3)cs2)cc1C(F)(F)F` [compound 367, ethyl 1-(2-(4-(pentyloxy)-3-(trifluoromethyl)pheenyl-amino)thiazol-4-yl)cyclopropanecarboxylate], > 10 µM. In the case of `CCCCCOc1ccc(Nc2nc(N3CCCC3C(=O)O)cs2)cc1C(F)(F)F` (stereo not drawn) [compound 368, 1-(2-(4-(pentyloxy)-3-(trifluoromethyl)phenyl-amino)thiazol-4-yl)pyrrolidine-2-carboxylic acid], the EC50 fell in the range of 1 to 10 µM. For the compound `CCCCCCCOc1ccc(Nc2nc(-c3ccc(C)nc3)cs2)cc1` [compound 369, N-(4-(heptyloxy)phenyl)-4-(6-methylpyridin-3-yl)thiazol-2-amine], the EC50 was < 1 µM. As for `CCCCCCCCOc1ccc(Nc2nc(-c3ccc(C)nc3)cs2)cc1` [compound 370, 4-(6-methylpyridin-3-yl)-N-(4-(octyloxy)phenyl)thiazol-2-amine], the figure is < 1 µM; as for `CCCCCOc1ccc(Nc2nc(-c3ccccc3O)cs2)cc1C(F)(F)F` [compound 371, 2-(2-(4-(pentyloxy)-3-(trifluoromeethyl)phenyl-amino)thiazol-4-yl)phenol], 1 to 10 µM.

Take `CCCCCCCOc1ccc(Nc2nc(-c3ccccc3O)cs2)cc1` [compound 372, 2-(2-(4-(heptyloxy)phenylamino)thia-zol-4-yl)phenol]: the EC50 was < 1 µM. As for `CCCCCCCCOc1ccc(Nc2nc(-c3ccccc3O)cs2)cc1` [compound 373, 2-(2-(4-(octyloxy)phenylamino)thia-zol-4-yl)phenol], the figure is < 1 µM; as for `CCCCCOc1ccc(Nc2nc(-c3ccccc3OC)cs2)cc1C(F)(F)F` [compound 374, 4-(2-methoxyphenyl)-N-(4-(pentyloxy)-3-(trifluoromethyl)phenyl)thia-zol-2-amine], 1 to 10 µM; as for `CCCCCCCOc1ccc(Nc2nc(-c3ccccc3OC)cs2)cc1` [compound 375, N-(4-(heptyloxy)phenyl)-4-(2-methoxyphenyl)thiazol-2-amine], < 1 µM.

As to `CCCCCCCCOc1ccc(Nc2nc(-c3ccccc3OC)cs2)cc1` [compound 376, 4-(2-methoxyphenyl)-N-(4-(octyloxy)phenyl)thiazol-2-amine], the EC50 is < 1 µM. As for `CCCCCOc1ccc(Nc2nc(-c3ccc(O)nc3)cs2)cc1C(F)(F)F` [compound 377, 5-(2-(4-(pentyloxy)-3-(trifluoromethyl)phenyl-amino)thiazol-4-yl)pyridin-2-ol], the figure is < 1 µM; as for `CCCCCOc1ccc(Nc2nc(-c3ccc(OC)nc3)cs2)cc1C(F)(F)F` [compound 378, 4-(6-methoxypyridin-3-yl)-N-(4-(pentyloxy)-3-(trifluoromethyl)phenyl)thia-zol-2-amine], < 1 µM. With `CCCCCN(C)c1ccc(Nc2nc(-c3cccnc3)cs2)cc1C(F)(F)F` [compound 379, N^1-methyl-N^1-pentyl-N^4-(4-(pyridin-3-yl)thiazol-2-yl)-2-(trifluoromethyl)benzene-1,4-diamine] the figure was < 1 µM. As for `CCCCCCCCOc1ccc(Nc2nc(-c3ccc(Br)cc3)cs2)cc1` [compound 382, 4-(4-bromophenyl)-N-(4-(octyloxy)phenyl)thiazol-2-amine], the figure is < 1 µM; as for `CCCCCCCCOc1ccc(Nc2nc(-c3ccc4[nH]c(=O)oc4c3)cs2)cc1` [compound 383, 6-(2-(4-(octyloxy)phenylamino)thia-zol-4-yl)benzo[d]oxazol-2(3H)-one], < 1 µM; as for `CCCCCCCCOc1ccc(Nc2nc(-c3cccc(C(=O)O)c3)cs2)cc1` [compound 384, 3-(2-(4-(octyloxy)phenylamino)thia-zol-4-yl)benzoic acid], < 1 µM. In the case of `CCCCCCCCOc1ccc(Nc2nc(-c3ccccn3)cs2)cc1` [compound 385, N-(4-(octyloxy)phenyl)-4-(pyridin-2-yl)thiazol-2-amine], the EC50 is < 1 µM.

On to `CCCCCCCCOc1ccc(Nc2nc(-c3c[nH]c4ccccc34)cs2)cc1` [compound 386, 4-(1H-indol-3-yl)-N-(4-(octyloxy)pheenyl)thiazol-2-amine], for which the EC50 is < 1 µM.

Turning to `CCCCCCCCOc1ccc(Nc2nc(-c3ccc(-c4ccccn4)s3)cs2)cc1` [compound 387, N-(4-(octyloxy)phenyl)-4-(5-(pyridin-2-yl)thiophen-2-yl)thiazol-2-amine], the EC50 is < 1 µM. Take `CCCCCCCCOc1ccc(Nc2nc(-c3nc4ccccc4s3)cs2)cc1` [compound 388, 4-(benzo[d]thiazol-2-yl)-N-(4-(octyloxy)phenyl)thiazol-2-amine]: the EC50 was < 1 µM. With `CCCCCCCCOc1ccc(Nc2nc(-c3cc4ccccc4o3)cs2)cc1` [compound 389] the figure was < 1 µM; with `CCCCCCCCOc1ccc(Nc2nc(-c3sc(-c4cnccn4)nc3C)cs2)cc1` [compound 390, 4-(4-methyl-2-(pyrazin-2-yl)thiazol-5-yl)-N-(4-(octyloxy)phenyl)thiazol-2-amine], < 1 µM; with `CCCCCCCCOc1ccc(Nc2nc(CC)cs2)cc1` [compound 391, 4-ethyl-N-(4-(octyloxy)phenyl)thiazol-2-amine], < 1 µM. As for `CCCCCCCOc1ccc(Nc2nc(-c3ccc(O)c(O)c3)cs2)cc1` [compound 392, 4-(2-(4-(heptyloxy)phenylamino)thia-zol-4-yl)benzene-1,2-diol], the figure is < 1 µM; as for `CCCCCCCOc1ccc(Nc2nc(-c3ccc(Cl)s3)cs2)cc1` [compound 393, 4-(5-chlorothiophen-2-yl)-N-(4-(heptyloxy)phenyl)thiazol-2-amine], < 1 µM. With `CCCCCCCOc1ccc(Nc2nc(-c3ccc(Br)cc3)cs2)cc1` [compound 394, 4-(4-bromophenyl)-N-(4-(heptyloxy)phenyl)thiazol-2-amine] the figure was < 1 µM; with `CCCCCCCOc1ccc(Nc2nc(-c3ccc4[nH]c(=O)oc4c3)cs2)cc1` [compound 395, 6-(2-(4-(heptyloxy)phenylamino)thia-zol-4-yl)benzo[d]exazol-2(3H)-one], < 1 µM. For `CCCCCCCOc1ccc(Nc2nc(-c3cccc(C(=O)O)c3)cs2)cc1` [compound 396, 3-(2-(4-(heptyloxy)phenylamino)thia-zol-4-yl)benzoic acid], the EC50 was < 1 µM. With `CCCCCCCOc1ccc(Nc2nc(-c3ccccn3)cs2)cc1` [compound 397, N-(4-(heptyloxy)phenyl)-4-(pyridin-2-yl)thiazol-2-amine] the figure was < 1 µM; with `CCCCCCCOc1ccc(Nc2nc(-c3c[nH]c4ccccc34)cs2)cc1` [compound 398, N-(4-(heptyloxy)phenyl)-4-(1H-indol-3-yl)thiazol-2-amine], < 1 µM. As for `CCCCCCCOc1ccc(Nc2nc(-c3ccc(-c4ccccn4)s3)cs2)cc1` [compound 399, N-(4-(heptyloxy)phenyl)-4-(5-(pyridin-2-yl)thiophen-2-yl)thiazol-2-amine], the figure is < 1 µM.

In the case of `CCCCCCCOc1ccc(Nc2nc(-c3nc4ccccc4s3)cs2)cc1` [compound 400, 4-(benzo[d]thiazol-2-yl)-N-(4-(heptyloxy)phenyl)thiazol-2-amine], the EC50 was in the range of 1 to 10 µM. With `CCCCCCCOc1ccc(Nc2nc(-c3cc4ccccc4o3)cs2)cc1` [compound 401, 4-(benzofuran-2-yl)-N-(4-(heptyloxy)phenyl)thiazol-2-amine] the figure was 1 to 10 µM.

Consider `CCCCCCCOc1ccc(Nc2nc(-c3sc(-c4cnccn4)nc3C)cs2)cc1` [compound 402], for which the EC50 was < 1 µM. With `CCCCCCCOc1ccc(Nc2nc(CC)cs2)cc1` [compound 403, 4-ethyl-N-(4-(heptyloxy)phenyl)thiazol-2-amine] the figure was < 1 µM.

Regarding `CCCCCOc1ccc(Nc2nc(-c3ccc(O)c(O)c3)cs2)cc1C(F)(F)F` [compound 404, 4-(2-(3-(trifluoromethyl)-4-(pentyloxy)phenylamino)thia-zol-4-yl)benzene-1,2-diol], the EC50 is < 1 µM.

Turning to `CCCCCOc1ccc(Nc2nc(-c3ccc(Cl)s3)cs2)cc1C(F)(F)F` [compound 405], the EC50 is < 1 µM.
